In PubChem BioAssay AID192 (DTP/NCI, 2004):
“And” between values parts separate entries of the source, which are not always exact repeats. Equal values may be shown once. Inconclusive results and toxic doses are left out.

System: BDF1 mice, B16 melanoma ip, median survival T/C
Assay: NCI In Vivo Anticancer Drug Screen. Data for tumor model B16 Melanoma (intraperitoneal) in B6D2F1 (BDF1) mice
Details: endpoint: median survival time, higher = longer survival
How it was run: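 Vehicle-treated animals serve as the reference (C); treated animals (T) are scored for survival or tumor size after tumor transplantation.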

[1] = dose: 12.5 mg/kg/injection, schedule: Q01DX009 (ip), vehicle: saline with Tween-80
[2] = dose: 25.0 mg/kg/injection, schedule: Q01DX009 (ip), vehicle: saline with Tween-80
[3] = dose: 50.0 mg/kg/injection, schedule: Q01DX009 (ip), vehicle: saline with Tween-80

SMILES: COc1cccc2c1C(=O)c1c(O)c3c(c(O)c1C2=O)C[C@@](O)(C(=O)CO)C[C@@H]3OC1CC(N)C(O)C(C)O1 (stereo partly specified)
- T/C (dose: 0.12 mg/kg/injection, schedule: Q01DX009 (ip), vehicle: saline): 163 % of control
- T/C (dose: 0.13 mg/kg/injection, schedule: Q01DX009 (ip), vehicle: water): 202 % of control
- T/C (dose: 0.25 mg/kg/injection, schedule: Q01DX009 (ip), vehicle: water): 181 % of control and 202 % of control and 266 % of control
- T/C (dose: 0.37 mg/kg/injection, schedule: Q01DX009 (ip), vehicle: saline): 412 % of control
- T/C (dose: 0.37 mg/kg/injection, schedule: Q03HX008 (ip), vehicle: saline): 154 % of control and 270 % of control
- T/C (dose: 0.47 mg/kg/injection, schedule: Q01DX001 (ip), vehicle: water): 175 % of control
- T/C (dose: 0.5 mg/kg/injection, schedule: Q01DX009 (ip), vehicle: water): 222 % of control and 260 % of control and 274 % of control
- T/C (dose: 0.5 mg/kg/injection, schedule: Q03HX008 (ip), vehicle: saline): 194 % of control
- T/C (dose: 0.75 mg/kg/injection, schedule: Q01DX001 (ip), vehicle: saline): 162 % of control
- T/C (dose: 0.75 mg/kg/injection, schedule: Q01DX001 (ip), vehicle: water): 154 % of control
- T/C (dose: 0.75 mg/kg/injection, schedule: Q01DX009 (ip), vehicle: saline): 154 % of control and 412 % of control
- T/C (dose: 0.75 mg/kg/injection, schedule: Q03DX001 (ip), vehicle: saline): 168 % of control
- T/C (dose: 0.75 mg/kg/injection, schedule: Q03HX008 (ip), vehicle: saline): 164 % of control and 412 % of control
- T/C (dose: 0.75 mg/kg/injection, schedule: Q04DX003 (ip), vehicle: saline): 210 % of control
- T/C (dose: 0.94 mg/kg/injection, schedule: Q01DX001 (ip), vehicle: water): 194 % of control and 197 % of control
- T/C (dose: 1.0 mg/kg/injection, schedule: Q01DX009 (ip), vehicle: water): 260 % of control and 274 % of control and 339 % of control
- T/C (dose: 1.0 mg/kg/injection, schedule: Q03HX008 (ip), vehicle: saline): 169 % of control
- T/C (dose: 1.25 mg/kg/injection, schedule: Q01DX001 (ip), vehicle: saline): 210 % of control
- T/C (dose: 1.4 mg/kg/injection, schedule: Q04DX003 (ip), vehicle: saline): 102 % of control
- T/C (dose: 1.44 mg/kg/injection, schedule: Q04DX003 (ip), vehicle: water): 158 % of control and 295 % of control
- T/C (dose: 1.5 mg/kg/injection, schedule: Q01DX001 (ip), vehicle: saline): 100 % of control and 114 % of control
- T/C (dose: 1.5 mg/kg/injection, schedule: Q01DX009 (ip), vehicle: saline): 164 % of control and 412 % of control
- T/C (dose: 1.5 mg/kg/injection, schedule: Q03DX001 (ip), vehicle: saline): 412 % of control
- T/C (dose: 1.5 mg/kg/injection, schedule: Q03HX008 (ip), vehicle: saline): 206 % of control
- T/C (dose: 1.5 mg/kg/injection, schedule: Q04DX003 (ip), vehicle: saline): 152 % of control and 412 % of control
- T/C (dose: 1.88 mg/kg/injection, schedule: Q01DX001 (ip), vehicle: water): 241 % of control and 308 % of control
- T/C (dose: 1.9 mg/kg/injection, schedule: Q01DX001 (ip), vehicle: water): 165 % of control
- T/C (dose: 2.0 mg/kg/injection, schedule: Q01DX009 (ip), vehicle: water): 219 % of control and 275 % of control
- T/C (dose: 2.0 mg/kg/injection, schedule: Q03HX008 (ip), vehicle: saline): 152 % of control
- T/C (dose: 2.4 mg/kg/injection, schedule: Q04DX003 (ip), vehicle: saline): 105 % of control
- T/C (dose: 2.4 mg/kg/injection, schedule: Q04DX003 (ip), vehicle: water): 155 % of control and 233 % of control
- T/C (dose: 3.0 mg/kg/injection, schedule: Q03DX001 (ip), vehicle: saline): 177 % of control
- T/C (dose: 3.0 mg/kg/injection, schedule: Q04DX003 (ip), vehicle: saline): 162 % of control and 412 % of control
- T/C (dose: 3.75 mg/kg/injection, schedule: Q01DX001 (ip), vehicle: water): 214 % of control and 308 % of control
- T/C (dose: 3.8 mg/kg/injection, schedule: Q01DX001 (ip), vehicle: water): 111 % of control
- T/C (dose: 4.0 mg/kg/injection, schedule: Q04DX003 (ip), vehicle: water): 184 % of control and 202 % of control
- T/C (dose: 5.9 mg/kg/injection, schedule: Q04DX003 (ip), vehicle: saline): 428 % of control
- T/C (dose: 6.0 mg/kg/injection, schedule: Q01DX001 (ip), vehicle: saline): 308 % of control
- T/C (dose: 6.0 mg/kg/injection, schedule: Q03DX001 (ip), vehicle: saline): 264 % of control
- T/C (dose: 6.0 mg/kg/injection, schedule: Q04DX003 (ip), vehicle: saline): 189 % of control
- T/C (dose: 6.67 mg/kg/injection, schedule: Q04DX003 (ip), vehicle: saline): 118 % of control
- T/C (dose: 6.67 mg/kg/injection, schedule: Q04DX003 (ip), vehicle: water): 198 % of control and 321 % of control
- T/C (dose: 8.0 mg/kg/injection, schedule: Q04DX003 (ip), vehicle: saline): 165 % of control and 180 % of control
- T/C (dose: 9.0 mg/kg/injection, schedule: Q04DX003 (ip), vehicle: saline): 103 % of control
- T/C (dose: 12.0 mg/kg/injection, schedule: Q03DX001 (ip), vehicle: saline): 100 % of control
- T/C (dose: 13.3 mg/kg/injection, schedule: Q01DX001 (ip), vehicle: saline): 150 % of control and 155 % of control
- T/C (dose: 32.0 mg/kg/injection, schedule: Q01DX001 (ip), vehicle: saline): 40 % of control
- T/C (dose: 32.0 mg/kg/injection, schedule: Q01DX001 (ip), vehicle: water): 116 % of control
- T/C (dose: 64.0 mg/kg/injection, schedule: Q01DX001 (ip), vehicle: saline): 25 % of control
- T/C (dose: 128.0 mg/kg/injection, schedule: Q01DX001 (ip), vehicle: saline): 20 % of control
- T/C (dose: 125.0 micrograms/kg/injection, schedule: Q01DX009 (ip), vehicle: other): 178 % of control
- T/C (dose: 250.0 micrograms/kg/injection, schedule: Q01DX009 (ip), vehicle: other): 246 % of control
- T/C (dose: 500.0 micrograms/kg/injection, schedule: Q01DX009 (ip), vehicle: other): 379 % of control
- T/C (dose: 518.0 micrograms/kg/injection, schedule: Q01DX004 (ip), vehicle: other): 112 % of control
- T/C (dose: 864.0 micrograms/kg/injection, schedule: Q01DX004 (ip), vehicle: other): 122 % of control
- T/C (dose: 1000.0 micrograms/kg/injection, schedule: Q01DX009 (ip), vehicle: other): 380 % of control
- T/C (dose: 2000.0 micrograms/kg/injection, schedule: Q01DX009 (ip), vehicle: other): 382 % of control
- T/C (dose: 4000.0 micrograms/kg/injection, schedule: Q01DX004 (ip), vehicle: other): 100 % of control and 112 % of control

SMILES: Cn1ncc2c(N)ncnc21
- T/C (dose: 1.25 mg/kg/injection, schedule: Q01DX009 (ip), vehicle: Klucel (hydroxypropylcellulose) (HPC)): 102 % of control
- T/C (dose: 2.5 mg/kg/injection, schedule: Q01DX009 (ip), vehicle: Klucel (hydroxypropylcellulose) (HPC)): 111 % of control
- T/C (dose: 5.0 mg/kg/injection, schedule: Q01DX009 (ip), vehicle: Klucel (hydroxypropylcellulose) (HPC)): 105 % of control
- T/C (dose: 10.0 mg/kg/injection, schedule: Q01DX009 (ip), vehicle: Klucel (hydroxypropylcellulose) (HPC)): 119 % of control

SMILES: O=C1/C(=C\c2ccc([N+](=O)[O-])cc2)CS(=O)(=O)C/C1=C/c1ccc([N+](=O)[O-])cc1
- T/C (dose: 50.0 mg/kg/injection, schedule: Q01DX009 (ip), vehicle: Klucel (hydroxypropylcellulose) (HPC)): 91 % of control
- T/C (dose: 100.0 mg/kg/injection, schedule: Q01DX009 (ip), vehicle: Klucel (hydroxypropylcellulose) (HPC)): 97 % of control
- T/C (dose: 200.0 mg/kg/injection, schedule: Q01DX009 (ip), vehicle: Klucel (hydroxypropylcellulose) (HPC)): 102 % of control

SMILES: NC(=O)NNc1ccc([N+](=O)[O-])cc1[N+](=O)[O-]
- T/C [1]: 95 % of control
- T/C [2]: 97 % of control
- T/C [3]: 97 % of control

SMILES: NC(=S)N/N=C\c1nccc2c(N)cccc12
- T/C (dose: 6.25 mg/kg/injection, schedule: Q01DX009 (ip), vehicle: saline with Tween-80): 115 % of control and 120 % of control
- T/C (dose: 6.25 mg/kg/injection, schedule: Q01DX009 (ip), vehicle: saline): 160 % of control
- T/C [1]: 119 % of control
- T/C (dose: 12.5 mg/kg/injection, schedule: Q01DX009 (ip), vehicle: saline): 172 % of control
- T/C (dose: 18.8 mg/kg/injection, schedule: Q04DX003 (ip), vehicle: saline): 155 % of control
- T/C [2]: 156 % of control
- T/C (dose: 25.0 mg/kg/injection, schedule: Q01DX009 (ip), vehicle: saline): 179 % of control
- T/C (dose: 37.5 mg/kg/injection, schedule: Q04DX003 (ip), vehicle: saline): 168 % of control
- T/C [3]: 164 % of control and 175 % of control
- T/C (dose: 50.0 mg/kg/injection, schedule: Q01DX009 (ip), vehicle: saline): 197 % of control
- T/C (dose: 75.0 mg/kg/injection, schedule: Q01DX009 (ip), vehicle: saline with Tween-80): 150 % of control and 153 % of control and 165 % of control
- T/C (dose: 75.0 mg/kg/injection, schedule: Q04DX003 (ip), vehicle: saline): 168 % of control
- T/C (dose: 150.0 mg/kg/injection, schedule: Q04DX003 (ip), vehicle: saline): 179 % of control
